Laboratory results from patent US20240252488A1 (KOREA RESEARCH INSTITUTE OF CHEMICAL TECHNOLOGY, priority 2020, published 2024).

How the values were obtained:
MLKL [1] = target: T1, MLKL (Homo sapiens, UniProt Q8NB16); assay: Measurement of binding affinity with MLKL receptor (competitive binding assay, Kd); set-up: made in house; host or cells: HEK 293 cell line (T7 phage in E. coli BL21-derived host is also described)
T1 sequence (Q8NB16 1-471): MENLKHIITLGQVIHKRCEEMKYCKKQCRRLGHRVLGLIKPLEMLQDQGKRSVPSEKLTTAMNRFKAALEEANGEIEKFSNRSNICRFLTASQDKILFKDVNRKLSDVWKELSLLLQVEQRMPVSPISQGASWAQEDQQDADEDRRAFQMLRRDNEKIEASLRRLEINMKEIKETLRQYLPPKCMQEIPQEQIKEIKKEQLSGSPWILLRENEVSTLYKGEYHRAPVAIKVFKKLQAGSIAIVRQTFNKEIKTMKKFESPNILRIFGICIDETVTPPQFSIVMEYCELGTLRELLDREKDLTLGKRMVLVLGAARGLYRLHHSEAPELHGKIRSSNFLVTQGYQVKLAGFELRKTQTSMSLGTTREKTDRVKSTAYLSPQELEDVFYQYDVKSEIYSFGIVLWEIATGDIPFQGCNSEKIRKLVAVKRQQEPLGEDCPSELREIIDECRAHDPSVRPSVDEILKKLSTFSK
How it was run: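 Competition binding of kinase tagged with DNA for qPCR detection, expressed in HEK 293 cells, against immobilized ligand on beads. Final DMSO 0.9%. Kd derived from kinase amount in eluates measured by qPCR.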

MLKL [2] = target: T1, MLKL; assay: MLKL degradation assay in HepG2 cell line (western blot); assay type: cell-based; set-up: endogenous in cells; host or cells: HepG2 or HaCaT; conditions: cell line not given; for Degradation assay (Degradation %) 1 μM: compound 1 μM; for Degradation assay (Degradation %) 10 μM: compound 10 μM
How it was run: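 Degradation is judged from MLKL band intensity on immunoblots of HepG2 lysates taken after 20-24 hours of compound at final 1 or 10 μM.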

FADD−/− Jurkat cells = assay: Necroptosis inhibition assay, TNF-α-induced necroptosis (CellTiter-Glo 2.0); assay type: cell-based, human; conditions: TNF-α 15 ng/mL; for Necroptosis inhibition assay (Rescue %) 1 μM: compound 1 μM; for Necroptosis inhibition assay (Rescue %) 10 μM: compound 10 μM
How it was run: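 Tested at three fixed concentrations (0.1, 1, 10 μM final) with a 30-minute room-temperature preincubation ahead of 15 ng/mL TNF-α challenge lasting 20 to 24 hours. Inhibition rate and cytotoxicity derive from ATP luminescence.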

SMILES	Kd (MLKL [1]) [nM]	Degradation assay (Degradation %) 1 μM (MLKL [2]) [%]	Degradation assay (Degradation %) 10 μM (MLKL [2]) [%]	Necroptosis inhibition assay (Rescue %) 1 μM (FADD−/− Jurkat cells) [%]	Necroptosis inhibition assay (Rescue %) 10 μM (FADD−/− Jurkat cells) [%]
Nc1ncc(-c2cnn(C3CCN(CC4CCN(CC(=O)NCCCNc5cccc6c5C(=O)N(C5CCC(=O)NC5=O)C6=O)CC4)CC3)c2)nc1C(=O)OC(C(=O)Nc1ccc(F)cc1)c1ccccc1 (stereo not drawn) [TDH-235, 2-((4-fluorophenyl)amino)-2-oxo-1-phenylethyl 3-amino-6-(1-(1-((1-(2-((3-((2-(2,6-dioxopiperidin-3-yl)-1,3-dioxoisoindolin-4-yl)amino)propyl)amino)-2-oxoethyl)piperidin-4-yl)methyl)piperidin-4-yl)-1H-pyrazol-4-yl)pyrazine-2-carboxylate]	8.5	45.01	49.89	7.64	19.27
Nc1ncc(-c2cnn(C3CCN(CC4CCN(CC(=O)NC5CCN(c6cccc7c6C(=O)N(C6CCC(=O)NC6=O)C7=O)CC5)CC4)CC3)c2)nc1C(=O)OC(C(=O)Nc1ccc(F)cc1)c1ccccc1 (stereo not drawn) [TDH-236, 2-((4-fluorophenyl)amino)-2-oxo-1-phenylethyl 3-amino-6-(1-(1-((1-(2-((1-(2-(2,6-dioxopiperidin-3-yl)-1,3-dioxoisoindolin-4-yl)piperidin-4-yl)amino)-2-oxoethyl)piperidin-4-yl)methyl)piperidin-4-yl)-1H-pyrazol-4-yl)pyrazine-2-carboxylate]	4.9	32.16	27.8	42.35	46.48
Nc1ncc(-c2cnn(C3CCN(CC4CCN(CC(=O)N5CCN(c6cccc7c6C(=O)N(C6CCC(=O)NC6=O)C7=O)CC5)CC4)CC3)c2)nc1C(=O)OC(C(=O)Nc1ccc(F)cc1)c1ccccc1 (stereo not drawn) [TDH-237, 2-((4-fluorophenyl)amino)-2-oxo-1-phenylethyl 3-amino-6-(1-(1-((1-(2-(4-(2-(2,6-dioxopiperidin-3-yl)-1,3-dioxoisoindolin-4-yl)piperazin-1-yl)-2-oxoethyl)piperidin-4-yl)methyl)piperidin-4-yl)-1H-pyrazol-4-yl)pyrazine-2-carboxylate]	1.8	56.98	65.18	67.77	34.51
Nc1ncc(-c2cnn(C3CCN(CC4CCN(CC(=O)N5CCC(Nc6cccc7c6C(=O)N(C6CCC(=O)NC6=O)C7=O)CC5)CC4)CC3)c2)nc1C(=O)OC(C(=O)Nc1ccc(F)cc1)c1ccccc1 (stereo not drawn) [TDH-238, 2-((4-fluorophenyl)amino)-2-oxo-1-phenylethyl 3-amino-6-(1-(1-((1-(2-(4-((2-(2,6-dioxopiperidin-3-yl)-1,3-dioxoisoindolin-4-yl)amino)piperidin-1-yl)-2-oxoethyl)piperidin-4-yl)methyl)piperidin-4-yl)-1H-pyrazol-4-yl)pyrazine-2-carboxylate]	1.7	30.48	18.31	43.63	31.99
Nc1ncc(-c2cnn(C3CCN(CCCN4CCN(C(=O)C5CCN(c6cccc7c6C(=O)N(C6CCC(=O)NC6=O)C7=O)CC5)CC4)CC3)c2)nc1C(=O)OC(C(=O)Nc1ccc(F)cc1)c1ccccc1 (stereo not drawn) [TDH-239, 2-((4-fluorophenyl)amino)-2-oxo-1-phenylethyl 3-amino-6-(1-(1-(3-(4-(1-(2-(2,6-dioxopiperidin-3-yl)-1,3-dioxoisoindolin-4-yl)piperidine-4-carbonyl)piperazin-1-yl)propyl)piperidin-4-yl)-1H-pyrazol-4-yl)pyrazine-2-carboxylate]	3.8	53.9	65.78	40.3	23.29
Nc1ncc(-c2cnn(C3CCN(CCCN4CCN(C(=O)C5CCN(c6ccc7c(c6)C(=O)N(C6CCC(=O)NC6=O)C7=O)CC5)CC4)CC3)c2)nc1C(=O)OC(C(=O)Nc1ccc(F)cc1)c1ccccc1 (stereo not drawn) [TDH-240, 2-((4-fluorophenyl)amino)-2-oxo-1-phenylethyl 3-amino-6-(1-(1-(3-(4-(1-(2-(2,6-dioxopiperidin-3-yl)-1,3-dioxoisoindolin-5-yl)piperidine-4-carbonyl)piperazin-1-yl)propyl)piperidin-4-yl)-1H-pyrazol-4-yl)pyrazine-2-carboxylate]	4.2	88.47		43.23	14.03

Second part, led by results:

Kd (MLKL [1]) [nM]	Degradation assay (Degradation %) 1 μM (MLKL [2]) [%]	Degradation assay (Degradation %) 10 μM (MLKL [2]) [%]	SMILES	Necroptosis inhibition assay (Rescue %) 1 μM (FADD−/− Jurkat cells) [%]	Necroptosis inhibition assay (Rescue %) 10 μM (FADD−/− Jurkat cells) [%]
2.9	64.55	64.03	Nc1ncc(-c2cnn(C3CCN(CCCN4CCN(C(=O)CNc5cccc6c5C(=O)N(C5CCC(=O)NC5=O)C6=O)CC4)CC3)c2)nc1C(=O)OC(C(=O)Nc1ccc(F)cc1)c1ccccc1 (stereo not drawn) [TDH-241, 2-((4-fluorophenyl)amino)-2-oxo-1-phenylethyl 3-amino-6-(1-(1-(3-(4-((2-(2,6-dioxopiperidin-3-yl)-1,3-dioxoisoindolin-4-yl)glycyl)piperazin-1-yl)propyl)piperidin-4-yl)-1H-pyrazol-4-yl)pyrazine-2-carboxylate]	50.09	28.85
2.5	75.75	66.84	Nc1ncc(-c2cnn(C3CCN(CCCN4CCN(C(=O)CNc5ccc6c(c5)C(=O)N(C5CCC(=O)NC5=O)C6=O)CC4)CC3)c2)nc1C(=O)OC(C(=O)Nc1ccc(F)cc1)c1ccccc1 (stereo not drawn) [TDH-242, 2-((4-fluorophenyl)amino)-2-oxo-1-phenylethyl 3-amino-6-(1-(1-(3-(4-((2-(2,6-dioxopiperidin-3-yl)-1,3-dioxoisoindolin-5-yl)glycyl)piperazin-1-yl)propyl)piperidin-4-yl)-1H-pyrazol-4-yl)pyrazine-2-carboxylate]	71.4	44.8
0.94	57.14	54.82	Nc1ncc(-c2cnn(C3CCN(CCCN4CCN(C(=O)COc5cccc6c5C(=O)N(C5CCC(=O)NC5=O)C6=O)CC4)CC3)c2)nc1C(=O)OC(C(=O)Nc1ccc(F)cc1)c1ccccc1 (stereo not drawn) [TDH-243, 2-((4-fluorophenyl)amino)-2-oxo-1-phenylethyl 3-amino-6-(1-(1-(3-(4-(2-((2-(2,6-dioxopiperidin-3-yl)-1,3-dioxoisoindolin-4-yl)oxy)acetyl)piperazin-1-yl)propyl)piperidin-4-yl)-1H-pyrazol-4-yl)pyrazine-2-carboxylate]	61.25	53.31
1.3	75.95	66.16	Nc1ncc(-c2cnn(C3CCN(CCCN4CCN(C(=O)COc5ccc6c(c5)C(=O)N(C5CCC(=O)NC5=O)C6=O)CC4)CC3)c2)nc1C(=O)OC(C(=O)Nc1ccc(F)cc1)c1ccccc1 (stereo not drawn) [TDH-244, 2-((4-fluorophenyl)amino)-2-oxo-1-phenylethyl 3-amino-6-(1-(1-(3-(4-(2-((2-(2,6-dioxopiperidin-3-yl)-1,3-dioxoisoindolin-5-yl)oxy)acetyl)piperazin-1-yl)propyl)piperidin-4-yl)-1H-pyrazol-4-yl)pyrazine-2-carboxylate]	92.11	65.67
3.6	67.67	62.75	Nc1ncc(-c2cnn(C3CCN(CCCN4CCN(c5cccc6c5C(=O)N(C5CCC(=O)NC5=O)C6=O)CC4)CC3)c2)nc1C(=O)OC(C(=O)Nc1ccc(F)cc1)c1ccccc1 (stereo not drawn) [TDH-245, 2-((4-fluorophenyl)amino)-2-oxo-1-phenylethyl 3-amino-6-(1-(1-(3-(4-(2-(2,6-dioxopiperidin-3-yl)-1,3-dioxoisoindolin-4-yl)piperazin-1-yl)propyl)piperidin-4-yl)-1H-pyrazol-4-yl)pyrazine-2-carboxylate]	65.75	14.51
